11 molecules from patent publication US20260295053A1, “COMPOUNDS FOR DEGRADATION AND INHIBITION OF KRAS (G12D) PROTEIN” (Shenzhen Ionova Life Science Co., Ltd., priority 2023, published 2026) can be followed below.

What is called IC50 is the concentration at which inhibition is half-maximal. For orientation: DC50 means the midpoint of the concentration-degradation curve.

Experiment [1] has as its system AsPC-1 cells. In words: AsPC-1 cell proliferation assay (CellTiter Glo). The experiment is classed as cell-based. The note with it: 6 days. The essentials: (§1)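 Degradation: 22,000 cells/well grown to ~90% confluency, 24 h compound, fixed/permeabilised, anti-KRAS G12D + β-actin antibodies, near-IR fluorescence, DC50. Proliferation: 3,500 cells/well overnight, 6 d compound, CellTiter Glo luminescence, IC50. Dosing […]–1.5 nM final, 1:3 steps.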
For orientation: ATP-based viability assays read luminescence as a measure of living cells.

Experiment [2] concerns the target T1, KRAS (G12D) (Homo sapiens, UniProt P01116, G12D).
T1 construct: in-cell western with KRAS G12D antibody after 24 h
In words: KRAS (G12D) cellular degradation assay in AsPC-1 cells. The experiment is classed as cell-based. The note with it: 24 hours, antibody fluorescence (Odyssey CLX), DC50 half-maximal degradation concentration. The essentials: as §1

T1 sequence (P01116 1-188 isoform P01116-2 G12D): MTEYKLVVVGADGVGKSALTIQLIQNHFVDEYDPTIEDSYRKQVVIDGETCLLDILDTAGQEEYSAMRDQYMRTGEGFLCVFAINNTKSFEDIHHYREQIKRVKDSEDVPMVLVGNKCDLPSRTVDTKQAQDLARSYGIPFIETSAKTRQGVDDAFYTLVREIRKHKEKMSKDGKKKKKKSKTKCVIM

For the molecule `CCn1nccc1-c1ccc([C@@H](NC(=O)[C@@H]2C[C@@H](O)CN2C(=O)[C@H](C(C)C)n2cc(-c3ccc(COc4c(-c5c(C)c(F)cc6[nH]ncc56)c(C5CC5)cc5c(N6C[C@@H]7C[C@H]6CN7)nc(OC6CC7(CCOCC7)C6)nc45)cc3)nn2)[C@H](C)O)cc1` [Example 113, (2S,4R)-1-((2S)-2-(4-(4-(((2-((7-oxaspiro[3.5]nonan-2-yl)oxy)-4-((15,45)-2,5-diazabicyclo[2.2.1]heptan-2-yl)-6-cyclopropyl-7-(6-fluoro-5-methyl-1H-indazol-4-yl)quinazolin-8-yl)oxy)methyl)phenyl)-1H-1,2,3-triazol-1-yl)-3-methylbutanoyl)-N-((1R,2S)-1-(4-(1-ethyl-1H-pyrazol-5-yl)phenyl)-2-hydroxypropyl)-4-hydroxypyrrolidine-2-carboxamide], the IC50 in experiment [1] (Homo sapiens, ASPC1, 144 h) is less than 10 nM. The molecule further showed a DC50 in experiment [2] of less than 10 nM.
`CCn1nccc1-c1ccc([C@@H](NC(=O)[C@@H]2C[C@@H](O)CN2C(=O)[C@H](C(C)C)n2cc(-c3ccc(COc4c(-c5c(C)c(F)cc6[nH]ncc56)c(C5CC5)cc5c(N6C[C@@H]7C[C@H]6CN7)nc(OC6CC7(CCOC7)C6)nc45)cc3)nn2)[C@H](C)O)cc1` (stereo partly drawn) [Example 114, (2S,4R)-1-((2S)-2-(4-(4-(((2-((6-oxaspiro[3.4]octan-2-yl)oxy)-4-((1S,4S)-2,5-diazabicyclo[2.2.1]heptan-2-yl)-6-cyclopropyl-7-(6-fluoro-5-methyl-1H-indazol-4-yl)quinazolin-8-yl)oxy)methyl)phenyl)-1H-1,2,3-triazol-1-yl)-3-methylbutanoyl)-N-((1R,2S)-1-(4-(1-ethyl-1H-pyrazol-5-yl)phenyl)-2-hydroxypropyl)-4-hydroxypyrrolidine-2-carboxamide] showed an IC50 in experiment [1] (Homo sapiens, ASPC1, 144 h) of less than 10 nM. Further, in experiment [2], the DC50 was less than 10 nM.
As to `CCn1nccc1-c1ccc([C@@H](NC(=O)[C@@H]2C[C@@H](O)CN2C(=O)[C@H](C(C)C)n2cc(-c3ccc(COc4c(-c5c(C)c(F)cc6[nH]ncc56)c(C5CC5)cc5c(N6C[C@@H]7C[C@H]6CN7)nc(OC6CC7COCC7C6)nc45)cc3)nn2)[C@H](C)O)cc1` (stereo partly drawn) [Example 115, (2S,4R)-1-((2S)-2-(4-(4-(((4-((1S,4S)-2,5-diazabicyclo[2.2.1]heptan-2-yl)-6-cyclopropyl-7-(6-fluoro-5-methyl-1H-indazol-4-yl)-2-((hexahydro-1H-cyclopenta[c]furan-5-yl)oxy)quinazolin-8-yl)oxy)methyl)phenyl)-1H-1,2,3-triazol-1-yl)-3-methylbutanoyl)-N-((1R,2S)-1-(4-(1-ethyl-1H-pyrazol-5-yl)phenyl)-2-hydroxypropyl)-4-hydroxypyrrolidine-2-carboxamide], in experiment [1] (Homo sapiens, ASPC1, 144 h), the IC50 is less than 10 nM. Moreover, the DC50 in experiment [2] was less than 10 nM.
`CO[C@@H](C)COc1nc(N2C[C@@H]3C[C@H]2CN3)c2cc(C3CC3)c(-c3c(C)c(F)cc4[nH]ncc34)c(OCc3ccc(-c4cn([C@H](C(=O)N5C[C@H](O)C[C@H]5C(=O)N[C@H](C#Cc5cccc6nn(C)cc56)CO)C(C)C)nn4)cc3)c2n1` [Example 116, (2S,4R)-1-((2S)-2-(4-(4-(((4-((1S,4S)-2,5-diazabicyclo[2.2.1]heptan-2-yl)-6-cyclopropyl-7-(6-fluoro-5-methyl-1H-indazol-4-yl)-2-((S)-2-methoxypropoxy)quinazolin-8-yl)oxy)methyl)phenyl)-1H-1,2,3-triazol-1-yl)-3-methylbutanoyl)-4-hydroxy-N—((R)-1-hydroxy-4-(2-methyl-2H-indazol-4-yl)but-3-yn-2-yl)pyrrolidine-2-carboxamide] gave an IC50 in experiment [1] (Homo sapiens, ASPC1, 144 h) of less than 10 nM. Moreover, the DC50 in experiment [2] was less than 10 nM.
For `CCn1nccc1-c1ccc([C@@H](NC(=O)[C@@H]2C[C@@H](O)CN2C(=O)[C@H](C(C)C)n2cc(-c3ccc(COc4c(-c5c(C)c(F)cc6[nH]ncc56)c(C5CC5)cc5c(N6C[C@@H]7C[C@H]6CN7)nc(OCC(OC)C(F)F)nc45)cc3)nn2)[C@H](C)O)cc1` (stereo partly drawn) [Example 119, (2S,4R)-1-((2S)-2-(4-(4-(((4-((1S,4S)-2,5-diazabicyclo[2.2.1]heptan-2-yl)-6-cyclopropyl-2-(3,3-difluoro-2-methoxypropoxy)-7-(6-fluoro-5-methyl-1H-indazol-4-yl)quinazolin-8-yl)oxy)methyl)phenyl)-1H-1,2,3-triazol-1-yl)-3-methylbutanoyl)-N-((1R,2S)-1-(4-(1-ethyl-1H-pyrazol-5-yl)phenyl)-2-hydroxypropyl)-4-hydroxypyrrolidine-2-carboxamide], the IC50 in experiment [1] (Homo sapiens, ASPC1, 144 h) was less than 10 nM. The DC50 in experiment [2] was less than 10 nM.
For `CCn1nccc1-c1ccc([C@@H](NC(=O)[C@@H]2C[C@@H](O)CN2C(=O)[C@H](C(C)C)n2cc(-c3ccc(COc4c(-c5c(C)c(F)cc6[nH]ncc56)c(C5CC5)cc5c(N6C[C@@H]7C[C@H]6CN7)nc(O[C@H]6CC[C@H](OC)CC6)nc45)cc3)nn2)[C@H](C)O)cc1` [Example 121, (2S,4R)-1-((2S)-2-(4-(4-(((4-((1S,4S)-2,5-diazabicyclo[2.2.1]heptan-2-yl)-6-cyclopropyl-7-(6-fluoro-5-methyl-1H-indazol-4-yl)-2-(((1r,4S)-4-methoxycyclohexyl)oxy)quinazolin-8-yl)oxy)methyl)phenyl)-1H-1,2,3-triazol-1-yl)-3-methylbutanoyl)-N-((1R,2S)-1-(4-(1-ethyl-1H-pyrazol-5-yl)phenyl)-2-hydroxypropyl)-4-hydroxypyrrolidine-2-carboxamide], the IC50 in experiment [1] (Homo sapiens, ASPC1, 144 h) is less than 10 nM. The molecule further had a DC50 in experiment [2] of less than 10 nM.
In the case of `CCn1nccc1-c1ccc([C@@H](NC(=O)[C@@H]2C[C@@H](O)CN2C(=O)[C@H](C(C)C)n2cc(-c3ccc(COc4c(-c5c(C)c(F)cc6[nH]ncc56)c(C5CC5)cc5c(N6C[C@@H]7C[C@H]6CN7)nc(OCC(OC)C(F)F)nc45)cc3)nn2)[C@H](C)O)cc1` (stereo partly drawn) [Example 122, (2S,4R)-1-((2S)-2-(4-(4-(((4-((1S,4S)-2,5-diazabicyclo[2.2.1]heptan-2-yl)-6-cyclopropyl-2-(3,3-difluoro-2-methoxypropoxy)-7-(6-fluoro-5-methyl-1H-indazol-4-yl)quinazolin-8-yl)oxy)methyl)phenyl)-1H-1,2,3-triazol-1-yl)-3-methylbutanoyl)-N-((1R,2S)-1-(4-(1-ethyl-1H-pyrazol-5-yl)phenyl)-2-hydroxypropyl)-4-hydroxypyrrolidine-2-carboxamide], the IC50 in experiment [1] was less than 10 nM. In experiment [2], this molecule returned a DC50 of less than 10 nM.
Regarding `CCn1nccc1-c1ccc([C@@H](NC(=O)[C@@H]2C[C@@H](O)CN2C(=O)[C@H](C(C)C)n2cc(-c3ccc(COc4c(-c5c(C)c(F)cc6[nH]ncc56)c(C5CC5)cc5c(N6C[C@@H]7C[C@H]6CN7)nc(OC6CCC(OC)CC6)nc45)cc3)nn2)[C@@H](C)O)cc1` (stereo partly drawn) [Example 127, (2S,4R)-1-((2S)-2-(4-(4-(((4-((1S,4S)-2,5-diazabicyclo[2.2.1]heptan-2-yl)-6-cyclopropyl-7-(6-fluoro-5-methyl-1H-indazol-4-yl)-2-((4-methoxycyclohexyl)oxy)quinazolin-8-yl)oxy)methyl)phenyl)-1H-1,2,3-triazol-1-yl)-3-methylbutanoyl)-N-((1R,2R)-1-(4-(1-ethyl-1H-pyrazol-5-yl)phenyl)-2-hydroxypropyl)-4-hydroxypyrrolidine-2-carboxamide], in experiment [1] (Homo sapiens, ASPC1, 144 h), the IC50 was less than 10 nM. Also, in experiment [2], the DC50 was less than 10 nM.
In the case of `CCn1nccc1-c1ccc([C@@H](NC(=O)[C@@H]2C[C@@H](O)CN2C(=O)[C@H](C(C)C)n2cc(-c3ccc(COc4c(-c5c(C)c(F)cc6[nH]ncc56)c(C5CCC5)cc5c(N6C[C@@H]7C[C@H]6CN7)nc(OC[C@H](C)OC)nc45)cc3)nn2)[C@@H](C)O)cc1` [Example 128, (2S,4R)-1-((2S)-2-(4-(4-(((4-((1S,4S)-2,5-diazabicyclo[2.2.1]heptan-2-yl)-6-cyclobutyl-7-(6-fluoro-5-methyl-1H-indazol-4-yl)-2-((S)-2-methoxypropoxy)quinazolin-8-yl)oxy)methyl)phenyl)-1H-1,2,3-triazol-1-yl)-3-methylbutanoyl)-N-((1R,2R)-1-(4-(1-ethyl-1H-pyrazol-5-yl)phenyl)-2-hydroxypropyl)-4-hydroxypyrrolidine-2-carboxamide], the IC50 in experiment [1] (Homo sapiens, ASPC1, 144 h) was less than 10 nM. Moreover, the DC50 in experiment [2] is 10 to 100 nM.
On the same counts, the results for `Cc1ncsc1-c1ccc([C@H](CO)NC(=O)[C@@H]2C[C@@H](O)CN2C(=O)[C@H](C(C)C)n2cc(-c3ccc(COc4c(-c5c(C)c(F)cc6[nH]ncc56)c(C5CC5)cc5c(N6C[C@@H]7C[C@H]6CN7)nc(OC6CC7(COC7)C6)nc45)cc3)nn2)cc1` [Example 129, (2S,4R)-1-((2S)-2-(4-(4-(((2-((2-oxaspiro[3.3]heptan-6-yl)oxy)-4-((1S,4S)-2,5-diazabicyclo[2.2.1]heptan-2-yl)-6-cyclopropyl-7-(6-fluoro-5-methyl-1H-indazol-4-yl)quinazolin-8-yl)oxy)methyl)phenyl)-1H-1,2,3-triazol-1-yl)-3-methylbutanoyl)-4-hydroxy-N—((R)-2-hydroxy-1-(4-(4-methylthiazol-5-yl)phenyl)ethyl)pyrrolidine-2-carboxamide] are less than 10 nM and less than 10 nM.
On the same counts, the results for `CCn1nccc1-c1ccc([C@@H](NC(=O)[C@@H]2C[C@@H](O)CN2C(=O)[C@H](C(C)C)n2cc(-c3ccc(COc4c(-c5c(C)c(F)cc6[nH]ncc56)c(C5CC5)cc5c(N6C[C@@H]7C[C@H]6CN7)nc(OC6CCC7(CC6)COC7)nc45)cc3)nn2)[C@@H](C)O)cc1` [Example 130, (2S,4R)-1-((2S)-2-(4-(4-(((2-((2-oxaspiro[3.5]nonan-7-yl)oxy)-4-((1S,4S)-2,5-diazabicyclo[2.2.1]heptan-2-yl)-6-cyclopropyl-7-(6-fluoro-5-methyl-1H-indazol-4-yl)quinazolin-8-yl)oxy)methyl)phenyl)-1H-1,2,3-triazol-1-yl)-3-methylbutanoyl)-N-((1R,2R)-1-(4-(1-ethyl-1H-pyrazol-5-yl)phenyl)-2-hydroxypropyl)-4-hydroxypyrrolidine-2-carboxamide] are less than 10 nM and less than 10 nM.
